Data taken from PubChem BioAssay (NCI).
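These data come from cells grown in 96-well plates and exposed to compound for 48 hours at five concentrations. The concentration for full growth arrest is given as TGI.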

Legend:
Experiment in all cases: NCI-60 cell line screen, 48 h
786-0 renal = test system: 786-0 renal
A549 NSCLC = test system: A549 NSCLC
ACHN renal = test system: ACHN renal
BT-549 breast = test system: BT-549 breast
CCRF-CEM leukemia = test system: CCRF-CEM leukemia
COLO 205 colon = test system: COLO 205 colon
DU-145 prostate = test system: DU-145 prostate
EKVX NSCLC = test system: EKVX NSCLC
HCC-2998 colon = test system: HCC-2998 colon
HCT-116 colon = test system: HCT-116 colon
HCT-15 colon = test system: HCT-15 colon
HOP-62 NSCLC = test system: HOP-62 NSCLC
HOP-92 NSCLC = test system: HOP-92 NSCLC
HS 578T breast = test system: HS 578T breast
HT29 colon = test system: HT29 colon
IGROV1 ovarian = test system: IGROV1 ovarian
K-562 leukemia = test system: K-562 leukemia
KM12 colon = test system: KM12 colon
M14 melanoma = test system: M14 melanoma
MALME-3M melanoma = test system: MALME-3M melanoma
MCF7 breast = test system: MCF7 breast
MDA-MB-231 breast = test system: MDA-MB-231 breast
MDA-MB-435 = test system: MDA-MB-435
MDA-N = test system: MDA-N
MOLT-4 leukemia = test system: MOLT-4 leukemia
NCI-H226 lung = test system: NCI-H226 lung
NCI-H23 lung = test system: NCI-H23 lung
NCI-H460 lung = test system: NCI-H460 lung
NCI-H522 lung = test system: NCI-H522 lung
NCI/ADR-RES ovarian = test system: NCI/ADR-RES ovarian
OVCAR-3 ovarian = test system: OVCAR-3 ovarian
OVCAR-4 ovarian = test system: OVCAR-4 ovarian
OVCAR-5 ovarian = test system: OVCAR-5 ovarian
OVCAR-8 ovarian = test system: OVCAR-8 ovarian
PC-3 prostate = test system: PC-3 prostate
RPMI-8226 leukemia = test system: RPMI-8226 leukemia
SF-268 CNS = test system: SF-268 CNS
SF-295 CNS = test system: SF-295 CNS
SK-MEL-2 melanoma = test system: SK-MEL-2 melanoma
SK-MEL-28 melanoma = test system: SK-MEL-28 melanoma
SK-MEL-5 melanoma = test system: SK-MEL-5 melanoma
SK-OV-3 ovarian = test system: SK-OV-3 ovarian
SN12C renal = test system: SN12C renal
SNB-19 CNS = test system: SNB-19 CNS
SR leukemia = test system: SR leukemia
SW-620 colon = test system: SW-620 colon
T-47D breast = test system: T-47D breast
TK-10 renal = test system: TK-10 renal
U251 CNS = test system: U251 CNS
UACC-62 melanoma = test system: UACC-62 melanoma
UO-31 renal = test system: UO-31 renal
A498 renal = test system: A498 renal
CAKI-1 renal = test system: CAKI-1 renal
HL-60(TB) leukemia = test system: HL-60(TB) leukemia
LOX IMVI melanoma = test system: LOX IMVI melanoma
RXF 393 renal = test system: RXF 393 renal
SF-539 CNS = test system: SF-539 CNS
SNB-75 CNS = test system: SNB-75 CNS
UACC-257 melanoma = test system: UACC-257 melanoma

`COc1ccc(-n2sc3ncc(C)cc3c2=O)cc1` gave a TGI (786-0 renal) of 31 µM, a TGI (A549 NSCLC) of 44.7 µM and a TGI (ACHN renal) of 32.3 µM. The TGI (BT-549 breast) was 35.6 µM, the TGI (CCRF-CEM leukemia) was 37.5 µM and the TGI (COLO 205 colon) was 29.5 µM. The TGI (DU-145 prostate) was 44 µM, the TGI (EKVX NSCLC) was 33.6 µM and the TGI (HCC-2998 colon) was greater than 100 µM. For the same compound, the TGI (HCT-116 colon) was 34.5 µM, the TGI (HCT-15 colon) was 38.7 µM and the TGI (HOP-62 NSCLC) was 45.9 µM. The TGI (HOP-92 NSCLC) was 42.1 µM, the TGI (HS 578T breast) was 83.7 µM and the TGI (HT29 colon) was 31.9 µM. For the same compound, the TGI (IGROV1 ovarian) was greater than 100 µM, the TGI (K-562 leukemia) was greater than 100 µM and the TGI (KM12 colon) was 29.6 µM. It also gave a TGI (M14 melanoma) of 32.7 µM, a TGI (MALME-3M melanoma) of 38.5 µM and a TGI (MCF7 breast) of 44.2 µM. The TGI (MDA-MB-231 breast) was 30.7 µM, the TGI (MDA-MB-435) was 40.5 µM and the TGI (MDA-N) was 31.8 µM. It also gave a TGI (MOLT-4 leukemia) greater than 100 µM, a TGI (NCI-H226 lung) of 84.6 µM and a TGI (NCI-H23 lung) of 57.7 µM. For the same compound, the TGI (NCI-H460 lung) was greater than 100 µM, the TGI (NCI-H522 lung) was 45.8 µM and the TGI (NCI/ADR-RES ovarian) was 64.4 µM. The TGI (OVCAR-3 ovarian) was 32.4 µM, the TGI (OVCAR-4 ovarian) was greater than 100 µM and the TGI (OVCAR-5 ovarian) was 34.7 µM. For the same compound, the TGI (OVCAR-8 ovarian) was 35.2 µM, the TGI (PC-3 prostate) was 29 µM and the TGI (RPMI-8226 leukemia) was 67.2 µM. For the same compound, the TGI (SF-268 CNS) was 40.6 µM, the TGI (SF-295 CNS) was greater than 100 µM and the TGI (SK-MEL-2 melanoma) was 52.7 µM. For the same compound, the TGI (SK-MEL-28 melanoma) was 73 µM, the TGI (SK-MEL-5 melanoma) was 26 µM and the TGI (SK-OV-3 ovarian) was greater than 100 µM. For the same compound, the TGI (SN12C renal) was 35.4 µM, the TGI (SNB-19 CNS) was greater than 100 µM and the TGI (SR leukemia) was greater than 100 µM. The TGI (SW-620 colon) was 89.6 µM, the TGI (T-47D breast) was 39.4 µM and the TGI (TK-10 renal) was 33.2 µM. It also gave a TGI (U251 CNS) of 52.6 µM, a TGI (UACC-62 melanoma) of 34.9 µM and a TGI (UO-31 renal) of 31.4 µM.

With `COc1ccc(-c2c3ccccc3c(-c3ccc(OCCBr)cc3)c3ccccc23)cc1` the TGI (786-0 renal) was greater than 100 µM, the TGI (A498 renal) was greater than 100 µM and the TGI (A549 NSCLC) was greater than 100 µM. It also gave a TGI (ACHN renal) greater than 100 µM, a TGI (BT-549 breast) greater than 100 µM and a TGI (CAKI-1 renal) greater than 100 µM. For the same compound, the TGI (CCRF-CEM leukemia) was greater than 100 µM, the TGI (COLO 205 colon) was greater than 100 µM and the TGI (DU-145 prostate) was greater than 100 µM. For the same compound, the TGI (EKVX NSCLC) was greater than 100 µM, the TGI (HCC-2998 colon) was greater than 100 µM and the TGI (HCT-116 colon) was greater than 100 µM. It also gave a TGI (HCT-15 colon) greater than 100 µM, a TGI (HL-60(TB) leukemia) greater than 100 µM and a TGI (HOP-62 NSCLC) greater than 100 µM. It also gave a TGI (HS 578T breast) greater than 100 µM, a TGI (HT29 colon) greater than 100 µM and a TGI (IGROV1 ovarian) greater than 100 µM. It also gave a TGI (KM12 colon) greater than 100 µM, a TGI (LOX IMVI melanoma) greater than 100 µM and a TGI (M14 melanoma) greater than 100 µM. For the same compound, the TGI (MALME-3M melanoma) was greater than 100 µM, the TGI (MCF7 breast) was greater than 100 µM and the TGI (MDA-MB-231 breast) was greater than 100 µM. It also gave a TGI (MDA-MB-435) greater than 100 µM, a TGI (MDA-N) greater than 100 µM and a TGI (MOLT-4 leukemia) greater than 100 µM. It also gave a TGI (NCI-H226 lung) greater than 100 µM, a TGI (NCI-H23 lung) greater than 100 µM and a TGI (NCI-H460 lung) greater than 100 µM. The TGI (NCI-H522 lung) was greater than 100 µM, the TGI (NCI/ADR-RES ovarian) was greater than 100 µM and the TGI (OVCAR-3 ovarian) was greater than 100 µM. The TGI (OVCAR-4 ovarian) was greater than 100 µM, the TGI (OVCAR-5 ovarian) was greater than 100 µM and the TGI (OVCAR-8 ovarian) was greater than 100 µM. The TGI (PC-3 prostate) was greater than 100 µM, the TGI (RPMI-8226 leukemia) was greater than 100 µM and the TGI (RXF 393 renal) was greater than 100 µM. It also gave a TGI (SF-268 CNS) greater than 100 µM, a TGI (SF-295 CNS) greater than 100 µM and a TGI (SF-539 CNS) greater than 100 µM. The TGI (SK-MEL-2 melanoma) was greater than 100 µM, the TGI (SK-MEL-28 melanoma) was greater than 100 µM and the TGI (SK-MEL-5 melanoma) was greater than 100 µM. For the same compound, the TGI (SK-OV-3 ovarian) was greater than 100 µM, the TGI (SN12C renal) was greater than 100 µM and the TGI (SNB-19 CNS) was greater than 100 µM. For the same compound, the TGI (SNB-75 CNS) was greater than 100 µM, the TGI (SR leukemia) was greater than 100 µM and the TGI (SW-620 colon) was greater than 100 µM. It also gave a TGI (T-47D breast) greater than 100 µM, a TGI (TK-10 renal) greater than 100 µM and a TGI (U251 CNS) greater than 100 µM. It also gave a TGI (UACC-257 melanoma) greater than 100 µM, a TGI (UACC-62 melanoma) greater than 100 µM and a TGI (UO-31 renal) of 1.61 µM.

Compound `CCCCCC(=O)n1[nH]c(=O)n(-c2ccc(OC)cc2)c1=O` has a TGI (786-0 renal) greater than 100 µM, a TGI (A549 NSCLC) greater than 100 µM and a TGI (ACHN renal) greater than 100 µM. For the same compound, the TGI (BT-549 breast) was greater than 100 µM, the TGI (CAKI-1 renal) was greater than 100 µM and the TGI (CCRF-CEM leukemia) was greater than 100 µM. The TGI (COLO 205 colon) was greater than 100 µM, the TGI (DU-145 prostate) was greater than 100 µM and the TGI (EKVX NSCLC) was greater than 100 µM. It also gave a TGI (HCC-2998 colon) greater than 100 µM, a TGI (HCT-116 colon) greater than 100 µM and a TGI (HCT-15 colon) greater than 100 µM. For the same compound, the TGI (HL-60(TB) leukemia) was greater than 100 µM, the TGI (HOP-62 NSCLC) was greater than 100 µM and the TGI (HS 578T breast) was greater than 100 µM. For the same compound, the TGI (HT29 colon) was greater than 100 µM, the TGI (IGROV1 ovarian) was greater than 100 µM and the TGI (K-562 leukemia) was greater than 100 µM. The TGI (KM12 colon) was greater than 100 µM, the TGI (LOX IMVI melanoma) was greater than 100 µM and the TGI (M14 melanoma) was greater than 100 µM. It also gave a TGI (MALME-3M melanoma) greater than 100 µM, a TGI (MCF7 breast) greater than 100 µM and a TGI (MDA-MB-231 breast) greater than 100 µM. It also gave a TGI (MDA-MB-435) greater than 100 µM, a TGI (MDA-N) greater than 100 µM and a TGI (MOLT-4 leukemia) greater than 100 µM. The TGI (NCI-H226 lung) was greater than 100 µM, the TGI (NCI-H23 lung) was greater than 100 µM and the TGI (NCI-H460 lung) was greater than 100 µM. It also gave a TGI (NCI-H522 lung) greater than 100 µM, a TGI (NCI/ADR-RES ovarian) greater than 100 µM and a TGI (OVCAR-3 ovarian) greater than 100 µM. The TGI (OVCAR-4 ovarian) was greater than 100 µM, the TGI (OVCAR-5 ovarian) was greater than 100 µM and the TGI (OVCAR-8 ovarian) was greater than 100 µM. The TGI (PC-3 prostate) was greater than 100 µM, the TGI (RPMI-8226 leukemia) was greater than 100 µM and the TGI (RXF 393 renal) was greater than 100 µM. The TGI (SF-268 CNS) was greater than 100 µM, the TGI (SF-295 CNS) was greater than 100 µM and the TGI (SK-MEL-2 melanoma) was greater than 100 µM. The TGI (SK-MEL-28 melanoma) was greater than 100 µM, the TGI (SK-MEL-5 melanoma) was greater than 100 µM and the TGI (SK-OV-3 ovarian) was greater than 100 µM. It also gave a TGI (SN12C renal) greater than 100 µM, a TGI (SNB-19 CNS) greater than 100 µM and a TGI (SNB-75 CNS) greater than 100 µM. It also gave a TGI (SR leukemia) greater than 100 µM, a TGI (SW-620 colon) greater than 100 µM and a TGI (T-47D breast) greater than 100 µM. For the same compound, the TGI (TK-10 renal) was greater than 100 µM, the TGI (U251 CNS) was greater than 100 µM and the TGI (UACC-257 melanoma) was greater than 100 µM. It also gave a TGI (UACC-62 melanoma) greater than 100 µM and a TGI (UO-31 renal) greater than 100 µM.
